Experimental data as given in patent US10526316B2, “Quinoxaline and pyridopyrazine derivatives as PI3Kβ inhibitors” (Janssen Pharmaceutica NV, priority 2015, dated 2020).
Where two headings read alike, the source gives them in different places.

Assays:
PI3Kβ = target: T1, PI3Kβ (Homo sapiens, UniProt P42338); experiment: Enzyme binding assay (KINOMEscan, DiscoveRx); conditions: PIK3Cβ_h, read-out: Kd PIK3Cβ_h
T1 construct: purchased DiscoveRx Corporation, San Diego (contract service, KINOMEscan)
T1 sequence (P42338 whole entry): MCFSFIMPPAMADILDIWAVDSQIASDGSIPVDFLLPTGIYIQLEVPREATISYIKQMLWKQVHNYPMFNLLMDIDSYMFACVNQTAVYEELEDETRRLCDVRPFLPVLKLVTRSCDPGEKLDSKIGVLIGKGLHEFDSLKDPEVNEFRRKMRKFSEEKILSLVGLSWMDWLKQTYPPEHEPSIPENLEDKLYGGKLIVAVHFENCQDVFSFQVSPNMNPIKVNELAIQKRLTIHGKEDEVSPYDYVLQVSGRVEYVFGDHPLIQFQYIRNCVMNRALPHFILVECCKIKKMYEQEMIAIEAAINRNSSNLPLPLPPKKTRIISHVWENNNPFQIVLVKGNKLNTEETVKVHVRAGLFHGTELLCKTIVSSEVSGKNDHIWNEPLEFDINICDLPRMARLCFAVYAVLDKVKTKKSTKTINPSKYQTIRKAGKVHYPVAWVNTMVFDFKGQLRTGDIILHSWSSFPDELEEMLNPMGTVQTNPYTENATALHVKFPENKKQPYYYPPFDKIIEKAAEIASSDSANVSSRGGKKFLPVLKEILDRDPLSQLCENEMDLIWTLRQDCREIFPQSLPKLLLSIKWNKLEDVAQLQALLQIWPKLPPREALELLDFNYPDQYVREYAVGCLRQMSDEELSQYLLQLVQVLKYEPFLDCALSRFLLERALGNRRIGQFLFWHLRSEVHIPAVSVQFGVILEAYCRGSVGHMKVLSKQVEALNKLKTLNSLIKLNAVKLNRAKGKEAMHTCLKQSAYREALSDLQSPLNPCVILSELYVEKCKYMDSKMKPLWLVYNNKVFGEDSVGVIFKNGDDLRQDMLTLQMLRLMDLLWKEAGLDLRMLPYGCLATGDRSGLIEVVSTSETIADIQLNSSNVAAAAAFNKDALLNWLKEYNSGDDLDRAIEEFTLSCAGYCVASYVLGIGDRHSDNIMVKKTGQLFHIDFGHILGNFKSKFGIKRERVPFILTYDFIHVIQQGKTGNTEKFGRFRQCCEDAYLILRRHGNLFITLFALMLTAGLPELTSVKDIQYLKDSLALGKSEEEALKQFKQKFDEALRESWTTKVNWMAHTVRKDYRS
Outline: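 KINOMEscan binding platform; read-out is the inhibitor binding constant Kd (nM).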

kinase enzymes [1] = target: T2, kinase enzymes (Homo sapiens, UniProt P42345); experiment: Enzyme binding assay (KINOMEscan, DiscoveRx), further kinases of Table A; conditions: MTOR_h
T2 construct: purchased DiscoveRx Corporation, San Diego (contract service, KINOMEscan)
Outline: (§1)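 KINOMEscan readout; values are kinase binding affinities.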

kinase enzymes [2] = target: T3, kinase enzymes (Homo sapiens, UniProt P48736); experiment: as above; conditions: PIK3Cγ_h
T3 construct: purchased DiscoveRx Corporation, San Diego (contract service, KINOMEscan)
T3 sequence (P48736 whole entry): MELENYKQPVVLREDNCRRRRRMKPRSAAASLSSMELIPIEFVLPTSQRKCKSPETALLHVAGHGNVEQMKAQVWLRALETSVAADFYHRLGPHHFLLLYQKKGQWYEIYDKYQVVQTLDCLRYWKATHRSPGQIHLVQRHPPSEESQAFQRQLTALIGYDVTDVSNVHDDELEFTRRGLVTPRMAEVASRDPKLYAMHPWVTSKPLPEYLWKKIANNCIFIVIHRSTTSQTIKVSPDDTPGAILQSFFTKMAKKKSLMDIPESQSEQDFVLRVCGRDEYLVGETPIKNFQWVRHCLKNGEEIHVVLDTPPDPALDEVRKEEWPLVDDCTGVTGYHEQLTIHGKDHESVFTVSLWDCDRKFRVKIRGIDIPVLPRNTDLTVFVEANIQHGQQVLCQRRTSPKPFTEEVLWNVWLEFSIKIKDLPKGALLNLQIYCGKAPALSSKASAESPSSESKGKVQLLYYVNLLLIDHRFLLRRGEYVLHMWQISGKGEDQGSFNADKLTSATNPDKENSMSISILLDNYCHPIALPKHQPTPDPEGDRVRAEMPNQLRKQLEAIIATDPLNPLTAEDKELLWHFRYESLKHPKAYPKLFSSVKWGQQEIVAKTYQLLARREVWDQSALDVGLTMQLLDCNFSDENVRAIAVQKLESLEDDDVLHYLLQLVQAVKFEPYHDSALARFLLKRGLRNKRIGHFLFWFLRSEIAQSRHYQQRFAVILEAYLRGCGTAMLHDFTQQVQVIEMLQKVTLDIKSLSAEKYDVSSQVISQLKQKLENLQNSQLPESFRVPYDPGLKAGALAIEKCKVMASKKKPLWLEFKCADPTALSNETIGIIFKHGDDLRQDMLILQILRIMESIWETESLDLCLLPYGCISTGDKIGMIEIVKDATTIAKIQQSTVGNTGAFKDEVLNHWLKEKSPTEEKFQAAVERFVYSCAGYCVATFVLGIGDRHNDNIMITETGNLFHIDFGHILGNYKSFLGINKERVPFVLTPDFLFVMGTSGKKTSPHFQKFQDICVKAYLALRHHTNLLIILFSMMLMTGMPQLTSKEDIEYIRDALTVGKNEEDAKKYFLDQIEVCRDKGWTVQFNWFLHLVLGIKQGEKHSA
Outline: as §1

kinase enzymes [3] = target: T4, kinase enzymes (Homo sapiens, UniProt P42336); experiment: as above; conditions: PIK3Cα_h
T4 construct: purchased DiscoveRx Corporation, San Diego (contract service, KINOMEscan)
T4 sequence (P42336 whole entry): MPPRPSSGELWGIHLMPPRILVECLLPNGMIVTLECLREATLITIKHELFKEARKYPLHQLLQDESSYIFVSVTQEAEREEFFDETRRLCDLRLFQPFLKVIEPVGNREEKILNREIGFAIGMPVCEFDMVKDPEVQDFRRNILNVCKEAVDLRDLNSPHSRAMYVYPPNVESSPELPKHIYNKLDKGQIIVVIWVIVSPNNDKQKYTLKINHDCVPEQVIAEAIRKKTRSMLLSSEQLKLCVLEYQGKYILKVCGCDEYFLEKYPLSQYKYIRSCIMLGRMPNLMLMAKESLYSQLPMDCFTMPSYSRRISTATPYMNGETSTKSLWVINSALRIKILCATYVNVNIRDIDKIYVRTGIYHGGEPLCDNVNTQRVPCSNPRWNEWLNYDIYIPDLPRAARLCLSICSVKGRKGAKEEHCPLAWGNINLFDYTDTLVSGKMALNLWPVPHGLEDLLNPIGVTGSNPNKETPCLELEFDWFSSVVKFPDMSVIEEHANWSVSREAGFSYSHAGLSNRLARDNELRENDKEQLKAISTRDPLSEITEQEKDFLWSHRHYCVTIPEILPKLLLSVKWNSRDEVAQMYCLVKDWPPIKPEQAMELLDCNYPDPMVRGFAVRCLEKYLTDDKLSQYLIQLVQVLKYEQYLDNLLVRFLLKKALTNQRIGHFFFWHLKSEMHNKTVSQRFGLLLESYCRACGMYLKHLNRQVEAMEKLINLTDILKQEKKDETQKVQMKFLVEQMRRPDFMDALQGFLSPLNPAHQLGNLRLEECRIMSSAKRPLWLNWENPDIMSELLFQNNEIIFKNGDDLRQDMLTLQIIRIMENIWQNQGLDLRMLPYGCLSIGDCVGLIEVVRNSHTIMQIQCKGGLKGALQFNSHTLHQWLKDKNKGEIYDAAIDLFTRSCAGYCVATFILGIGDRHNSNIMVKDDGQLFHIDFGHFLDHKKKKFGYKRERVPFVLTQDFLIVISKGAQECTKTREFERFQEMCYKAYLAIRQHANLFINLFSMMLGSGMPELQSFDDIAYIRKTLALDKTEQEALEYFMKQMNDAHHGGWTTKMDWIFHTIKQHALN
Outline: as §1

[4] = tested on: Akt phosphorylated at Ser473 in PC-3 cells; experiment: Cellular assay: phosphorylation of Akt at Ser473 in PC-3 cells (MSD ELISA); type: cell-based; conditions: PC-3 cells, 60 min compound incubation, MSD ELISA, read-out: IC50 pAkt_S473
Outline: (§2)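 PC-3 cells were exposed to compound or 0.3% DMSO for 60 min at 37° C, 5% CO2, then lysed in ice-cold buffer. Phospho-Akt was captured on site-specific antibody-coated plates and detected with Sulfo-tag anti-total Akt by electrochemiluminescence. IC50 values came from five-concentration response curves.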

[5] = tested on: Akt phosphorylated at Thr308 in PC-3 cells; experiment: Cellular assay: phosphorylation of Akt at Thr308 in PC-3 cells (MSD ELISA); type: cell-based; conditions: PC-3 cells, 60 min compound incubation, MSD ELISA, read-out: IC50 pAkt_Thr308
Outline: as §2

PI3Kδ = target: T5, PI3Kδ (Homo sapiens, UniProt O00329); experiment: Enzyme binding assay (KINOMEscan, DiscoveRx); conditions: PIK3Cδ_h
T5 construct: purchased DiscoveRx Corporation, San Diego (contract service, KINOMEscan)
T5 sequence (O00329 1-1044): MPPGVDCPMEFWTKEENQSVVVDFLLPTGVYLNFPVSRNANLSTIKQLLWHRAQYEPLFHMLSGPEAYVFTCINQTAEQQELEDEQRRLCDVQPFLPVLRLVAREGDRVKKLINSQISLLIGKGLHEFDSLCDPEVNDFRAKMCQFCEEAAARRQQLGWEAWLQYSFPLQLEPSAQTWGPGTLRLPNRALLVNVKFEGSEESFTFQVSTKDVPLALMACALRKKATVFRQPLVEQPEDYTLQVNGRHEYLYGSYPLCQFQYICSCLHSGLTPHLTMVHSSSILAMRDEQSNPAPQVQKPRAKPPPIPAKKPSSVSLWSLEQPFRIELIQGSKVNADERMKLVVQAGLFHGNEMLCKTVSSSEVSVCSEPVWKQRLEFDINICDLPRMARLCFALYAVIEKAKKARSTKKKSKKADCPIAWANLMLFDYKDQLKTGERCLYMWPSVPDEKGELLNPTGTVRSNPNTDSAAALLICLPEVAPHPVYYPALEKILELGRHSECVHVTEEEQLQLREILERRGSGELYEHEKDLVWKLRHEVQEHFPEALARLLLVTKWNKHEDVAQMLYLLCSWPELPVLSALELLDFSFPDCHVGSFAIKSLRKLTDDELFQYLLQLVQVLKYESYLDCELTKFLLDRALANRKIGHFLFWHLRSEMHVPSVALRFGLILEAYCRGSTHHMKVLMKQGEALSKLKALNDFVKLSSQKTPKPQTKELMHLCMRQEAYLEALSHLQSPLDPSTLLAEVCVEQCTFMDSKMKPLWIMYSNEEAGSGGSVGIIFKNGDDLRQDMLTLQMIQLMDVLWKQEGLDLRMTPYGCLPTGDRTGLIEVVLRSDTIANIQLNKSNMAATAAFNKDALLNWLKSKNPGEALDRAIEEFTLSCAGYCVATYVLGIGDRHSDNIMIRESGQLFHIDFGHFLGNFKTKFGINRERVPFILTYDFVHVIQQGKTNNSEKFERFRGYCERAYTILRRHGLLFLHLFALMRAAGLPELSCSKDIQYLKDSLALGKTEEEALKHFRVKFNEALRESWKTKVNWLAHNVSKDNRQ
Outline: as §1

| Compound | Kd (PI3Kβ) [nM] | Kd (kinase enzymes [1]) [nM] | Kd (kinase enzymes [2]) [nM] | Kd (kinase enzymes [3]) [nM] | IC50 ([4]; Homo sapiens, PC-3, 1 h) [nM] | IC50 ([5]; Homo sapiens, PC-3, 1 h) [nM] | melting point [°C] | Kd (PI3Kδ) [nM] | IC50 [4] [nM] | IC50 [5] [nM] |
| --- | --- | --- | --- | --- | --- | --- | --- | --- | --- | --- |
| CNCCNC(=O)c1cc(C2CCCN2c2cc(F)cc(F)c2)c2nc(N3CCOCC3)cnc2c1 (centres unmarked) [Compound 72] | 0.2 | 20400 | 204 | 56 | 2 | 1 | 80 | 17 | – | – |
| CC(Nc1cc(F)cc(F)c1)c1cc(C(=O)N2CCN(CC(F)(F)F)CC2)cc2ncc(N3CCOCC3)nc12 (centres unmarked) [Compound 171] | 3 | > 30200 | > 30200 | 2190 | 155 | 102 | 125 | 575 | – | – |
| CN(C)C(=O)c1cc(C2CCCN2c2cccc(F)c2)c2nc(N3CCOCC3)cnc2c1 (centres unmarked) [Compound 28] | 1 | > 30200 | 832 | 107 | 5 | 6 | 80 | 29 | – | – |
| CC(Oc1cc(F)cc(F)c1)c1cc(C(=O)N2CCOCC2)cc2ncc(N3CCO[C@H](C)C3)nc12 (mixture of isomers) [Compound 56] | 13 | > 30200 | > 30200 | 6610 | > 513 | 148 | 55 | 2630 | – | – |
| CC(Nc1cc(F)cc(F)c1)c1cc(C(=O)N(C)CCN(C)C)cc2ncc(N3CCOCC3)nc12 (single isomer, unassigned) [Compound 181] | 117 | > 30200 | 17800 | 5010 | – | ~398 | 134 | 20400 | ~447 | – |
| OC[C@@H]1CCCN1Cc1cc(C2CCCN2c2cc(F)cc(F)c2)c2nc(N3CCOCC3)cnc2c1 (single isomer, unassigned) [Compound 77] | 0.3 | > 30200 | 646 | 363 | ~76 | ~51 | 80 | 100 | – | – |
| CC(Nc1cc(F)c(F)c(F)c1)c1cc(C(=O)O)cc2ncc(N3CCOCC3)nc12 (centres unmarked) [Compound 170] | 5 | 4370 | 2240 | 617 | > 513 | > 513 | 285 | 288 | – | – |
| CNCCNC(=O)c1cc(C(C)Oc2cc(F)cc(F)c2)c2nc(N3CCOCC3)cnc2c1 (single isomer, unassigned) [Compound 165] | 0.3 | 14100 | 5490 | 1780 | – | – | 80 | 182 | 45 | 11 |
| CC(Nc1ccc(F)c(F)c1)c1cc(C(=O)NCCN(C)C)cc2ncc(N3CCOCC3)nc12 (single isomer, unassigned) [Compound 281a] | 0.3 | 23400 | 4070 | 1510 | – | – | 102 | 72 | 5 | 3 |
| CC(Nc1ccc(F)c(F)c1)c1cc(C(=O)NCCO)cc2ncc(N3CCOCC3)nc12 (single isomer, unassigned) [Compound 279a] | 7 | 21400 | 5620 | 2190 | 58 | – | 80 | 513 | – | 41 |
| CC(Nc1ccc(F)c(F)c1)c1cc(C(=O)N[C@H]2CCNC2)cc2ncc(N3CCOCC3)nc12 (single isomer, unassigned) [Compound 374a] | 0.3 | > 30200 | 5890 | 2460 | – | – | 132 | 141 | 32 | 17 |
| CC(Nc1cc(F)cc(F)c1)c1cc(C(=O)N2CCN(C)CC2)cc2ncc(N3CCOCC3)nc12 (centres unmarked) [Compound 144] | 2 | > 30200 | 5620 | 1740 | 59 | 28 | 80 | 437 | – | – |
| CNCCNC(=O)c1cc(C(C)Oc2ccc(F)c(F)c2)c2nc(N3CCOCC3)cnc2c1 (single isomer, unassigned) [Compound 344a] | 2 | > 30200 | 8320 | 2140 | – | – | 75 | 288 | > 102 | 56 |
| CC(Nc1cccc(F)c1)c1cc(C(=O)NC[C@@H](C)O)cc2ncc(N3CCOCC3)nc12 (single isomer, unassigned) [Compound 338b] | 851 | 20000 | 2340 | 22900 | – | – | 90.8 | > 30200 | > 513 | > 513 |
| CC(Nc1ccc(F)c(F)c1)c1cc(C(=O)NC[C@@H](C)O)cc2ncc(N3CCOCC3)nc12 (single isomer, unassigned) [Compound 346b] | 741 | > 30200 | 2750 | 23400 | – | – | 106 | 20900 | > 513 | > 513 |
| CN(C)C(=O)c1cc(N2CCCC2c2cc(F)cc(F)c2)c2nc(N3CCOCC3)cnc2c1 (centres unmarked) [Compound 395] | 33 | 18200 | 14100 | 3470 | > 513 | > 513 | 80 | 2240 | – | – |
| CC(Nc1ccc(F)c(F)c1)c1cc(C(=O)N(C)CCN(C)C)cc2ncc(N3CCOCC3)nc12 (single isomer, unassigned) [Compound 349a] | 0.2 | > 30200 | 4270 | 813 | – | – | 82 | 36 | 4 | 2 |
| CC(Nc1cccc(C#N)c1)c1cc(C(=O)N2CCOCC2)cc2ncc(N3CCOCC3)nc12 (centres unmarked) [Compound 131] | 11 | > 30200 | 20000 | 3160 | 501 | 363 | 80 | 2510 | – | – |
| C[C@H](Nc1cc(C(=O)N(C)C)cc2ncc(N3CCOCC3)nc12)c1ccc(F)cc1 [Compound 401] | 550 | 11500 | > 30200 | 1860 | > 513 | > 513 | 80 | 12300 | – | – |
| CCN1CCN(C(=O)c2cc(C3CCCN3c3cc(F)cc(F)c3)c3nc(N4CCOCC4)cnc3c2)CC1 (centres unmarked) [Compound 142] | 0.5 | > 30200 | 741 | 209 | 10 | 7 | 80 | 59 | – | – |
| OCc1cc(C2CCCN2c2cc(F)cc(F)c2)c2nc(N3CCOCC3)cnc2c1 (centres unmarked) [Compound 10] | 0.5 | > 30200 | 336 | 142 | 4 | 3 | 189 | 74 | – | – |
| CC(Nc1cc(F)c(F)c(F)c1)c1cc(C(=O)NCC(C)(C)O)cc2ncc(N3CCOCC3)nc12 (single isomer, unassigned) [Compound 292a] | 17 | 32400 | 21900 | 2820 | – | – | 110 | 603 | 155 | 98 |
